# Measured values: PubChem BioAssay (NCI)
#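 Interpolation was linear, between the two tested concentrations surrounding the appropriate level; five concentrations were tested over 48 hours in 96-well plates. At the GI50, growth is halved. The concentration for full growth arrest is given as TGI.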
# Experiments:
# Test in all cases: growth of human tumour cells (NCI), 48 h
# SK-MEL-5 melanoma = test system: SK-MEL-5 melanoma
# SF-268 CNS = test system: SF-268 CNS
# U251 CNS = test system: U251 CNS
# HOP-92 NSCLC = test system: HOP-92 NSCLC
# SNB-19 CNS = test system: SNB-19 CNS
# 786-0 renal = test system: 786-0 renal
# MCF7 breast = test system: MCF7 breast
# CCRF-CEM leukemia = test system: CCRF-CEM leukemia
# SK-MEL-28 melanoma = test system: SK-MEL-28 melanoma
# SR leukemia = test system: SR leukemia
Compound,GI50 (SK-MEL-5 melanoma) [µM],TGI (SK-MEL-5 melanoma) [µM],GI50 (SF-268 CNS) [µM],TGI (SF-268 CNS) [µM],GI50 (U251 CNS) [µM],TGI (U251 CNS) [µM],GI50 (HOP-92 NSCLC) [µM],TGI (HOP-92 NSCLC) [µM],GI50 (SNB-19 CNS) [µM],TGI (SNB-19 CNS) [µM],GI50 (786-0 renal) [µM],TGI (786-0 renal) [µM],GI50 (MCF7 breast) [µM],TGI (MCF7 breast) [µM],GI50 (CCRF-CEM leukemia) [µM],TGI (CCRF-CEM leukemia) [µM],GI50 (SK-MEL-28 melanoma) [µM],TGI (SK-MEL-28 melanoma) [µM],GI50 (SR leukemia) [µM],TGI (SR leukemia) [µM]
Cc1cc(S(=O)(=O)Nc2nc3ccsc3c(=O)n2Cc2ccccc2)c(S)cc1Cl,12.5,34.2,30.6,> 100,35.9,> 100,87.6,> 100,32.4,> 100,32.2,> 100,34.4,> 100,34,> 100,25,57.2,–,–
Cc1cc(Cl)ccc1Nc1nc(C(F)(F)F)ccc1C(=O)N/N=C/c1ccc(N(C)C)cc1,2.56,> 100,1.37,> 100,1.42,> 100,–,–,3.08,> 100,0.997,> 100,1.9,> 100,–,–,3.81,> 100,0.872,6.79
O=C(O)CCc1nc(-c2ccccc2)c(-c2ccccc2)o1,–,> 100,–,–,–,> 100,–,> 100,–,> 100,–,> 100,–,> 100,–,> 100,–,> 100,–,> 100
COc1ccc(-c2cc3nccn3c(Nc3ncccc3C(N)=O)n2)cc1OC,4.87,> 100,3.65,> 100,> 100,> 100,–,–,> 100,> 100,2.42,> 100,1.87,> 100,0.827,> 100,> 100,> 100,0.275,21.4
CN(/C(=N\O)c1ccccc1)c1ccccc1,–,–,–,97,–,37.6,–,62.5,–,90.3,–,89,–,–,–,–,–,–,–,75.4
c1cc(C2N3CCCN2CC3)ccn1 (stereo unspecified),–,> 100,–,30.4,–,> 100,–,–,–,> 100,–,> 100,–,> 100,–,> 100,–,> 100,–,> 100
CN(Cc1ccccc1)c1nc(=[N+](C)C)ss1,–,> 100,–,> 100,–,> 100,–,> 100,–,> 100,–,> 100,–,–,–,> 100,–,> 100,–,> 100
CC(C)(C)n1cc(-c2ccnc(NCCCNS(=O)(=O)c3ccc(Cl)cc3)c2)c(-c2cccc(O)c2)n1,1.44,2.76,2.18,5.78,1.62,3.42,1.49,3.33,2.18,4.96,2.03,4.54,1.84,3.91,2.13,7.85,1.57,3.06,–,–
COc1ccc(NCc2c(O)ccc3ccccc23)cc1,–,49.1,–,40.7,–,> 100,–,29.6,–,> 100,–,32,–,> 100,–,–,–,78.3,–,39.5
COC(=O)C(C(=O)C(=O)Nc1ccc(C)cc1C)c1nc2ccc([N+](=O)[O-])cc2[nH]c1=O (stereo unspecified),–,> 100,–,> 100,–,> 100,–,> 100,–,> 100,–,> 100,–,–,–,> 100,–,> 100,–,> 100
